Reference: PubChem BioAssay AID330 (DTP/NCI, 2004)
Values joined by “and” are separate entries in the source; they are usually repeats but may differ in a detail not shown here. Equal values may be shown once. Toxic doses and inconclusive results are not listed. Bridge positions count the residues as written; N and C are the ends. Peptide text beside a SMILES is read from it. I, II: the chains in the order shown.

Tested on: P388 leukemia ip, CD2F1 mice, survival T/C
Assay: NCI In Vivo Anticancer Drug Screen. Data for tumor model P388 Leukemia (intraperitoneal) in CD2F1 (CDF1) mice
Conditions: endpoint: median survival time, higher = longer survival
Procedure, shortened: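 Mice carrying the transplanted tumor received test compound or vehicle. Survival was recorded in each group, and the value is the treated-group measurement divided by that of the vehicle-treated control group.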

[1] = dose: 25.0 mg/kg/injection, schedule: Q01DX005 (ip), vehicle: Klucel (hydroxypropylcellulose) (HPC)
[2] = dose: 50.0 mg/kg/injection, schedule: Q01DX005 (ip), vehicle: Klucel (hydroxypropylcellulose) (HPC)
[3] = dose: 100.0 mg/kg/injection, schedule: Q01DX005 (ip), vehicle: Klucel (hydroxypropylcellulose) (HPC)
[4] = dose: 200.0 mg/kg/injection, schedule: Q01DX005 (ip), vehicle: Klucel (hydroxypropylcellulose) (HPC)
[5] = dose: 50.0 mg/kg/injection, schedule: Q01DX009 (ip), vehicle: saline
[6] = dose: 100.0 mg/kg/injection, schedule: Q01DX009 (ip), vehicle: saline
[7] = dose: 200.0 mg/kg/injection, schedule: Q01DX009 (ip), vehicle: saline
[8] = dose: 50.0 mg/kg/injection, schedule: Q01DX009 (ip), vehicle: Klucel (hydroxypropylcellulose) (HPC)
[9] = dose: 100.0 mg/kg/injection, schedule: Q01DX009 (ip), vehicle: Klucel (hydroxypropylcellulose) (HPC)
[10] = dose: 200.0 mg/kg/injection, schedule: Q01DX009 (ip), vehicle: Klucel (hydroxypropylcellulose) (HPC)
[11] = dose: 100.0 mg/kg/injection, schedule: Q04DX003 (ip), vehicle: saline with Tween-80
[12] = dose: 200.0 mg/kg/injection, schedule: Q04DX003 (ip), vehicle: saline with Tween-80
[13] = dose: 60.0 mg/kg/injection, schedule: Q01DX005 (ip), vehicle: saline with Tween-80
[14] = dose: 120.0 mg/kg/injection, schedule: Q01DX005 (ip), vehicle: saline with Tween-80
[15] = dose: 240.0 mg/kg/injection, schedule: Q01DX005 (ip), vehicle: saline with Tween-80
[16] = dose: 100.0 mg/kg/injection, schedule: Q04DX003 (ip), vehicle: saline
[17] = dose: 200.0 mg/kg/injection, schedule: Q04DX003 (ip), vehicle: saline
[18] = dose: 8.75 mg/kg/injection, schedule: Q01DX005 (ip), vehicle: Klucel (hydroxypropylcellulose) (HPC)
[19] = dose: 17.5 mg/kg/injection, schedule: Q01DX005 (ip), vehicle: Klucel (hydroxypropylcellulose) (HPC)

C[n+]1ccc(C(c2ccccc2)c2ccccc2)cc1
T/C (dose: 6.25 mg/kg/injection, schedule: Q01DX009 (ip), vehicle: saline): 104 % of control
T/C (dose: 12.5 mg/kg/injection, schedule: Q01DX009 (ip), vehicle: saline): 112 % of control
T/C (dose: 25.0 mg/kg/injection, schedule: Q01DX009 (ip), vehicle: saline): 100 % of control

CCCCCC(O)/C=C/[C@H]1C(O)CC2OC(CSCCC(=O)O)C[C@@H]21 (stereo partly drawn)
T/C (dose: 100.0 mg/kg/injection, schedule: Q04DX002 (ip), vehicle: saline with Tween-80): 103 % of control
T/C (dose: 200.0 mg/kg/injection, schedule: Q04DX002 (ip), vehicle: saline with Tween-80): 96 % of control

CC1(c2ccccc2)CCCCC/C1=N/Nc1ccc([N+](=O)[O-])cc1[N+](=O)[O-] (stereo not drawn)
T/C [1]: 97 % of control
T/C [2]: 90 % of control
T/C [3]: 94 % of control

CN(C)CCC=C1c2ccccc2C=Cc2ccccc21
T/C (dose: 12.5 mg/kg/injection, schedule: Q01DX005 (ip), vehicle: saline): 103 % of control
T/C (dose: 25.0 mg/kg/injection, schedule: Q01DX005 (ip), vehicle: saline): 95 % of control
T/C (dose: 50.0 mg/kg/injection, schedule: Q01DX005 (ip), vehicle: saline): 112 % of control

CC(C)C(NC(=O)C(N)CSSCC(N)C(=O)NC(C(=O)O)C(C)C)C(=O)O (stereo not drawn) (I: H-Cys-Val-OH / II: H-Cys-Val-OH; disulfide I:1-II:1; configuration not given here)
T/C [2]: 103 % of control
T/C [3]: 103 % of control
T/C [4]: 101 % of control

CCOc1ccc(NC(=O)N(c2ccnc3ccccc23)C(C)CCCN(CC)CC)cc1 (stereo not drawn)
T/C [2]: 98 % of control
T/C [3]: 103 % of control
T/C [4]: 98 % of control

COc1ccc2c(c1)-c1nn(CCO)c(-c3cccnc3)c1CC2
T/C (dose: 100.0 mg/kg/injection, schedule: Q04DX002 (ip), vehicle: DMSO): 94 % of control
T/C (dose: 200.0 mg/kg/injection, schedule: Q04DX002 (ip), vehicle: DMSO): 102 % of control

Cc1[nH]n(-c2ccc(Cl)cc2)c(=O)c1N=Nc1cccc(C(F)(F)F)c1
T/C [5]: 88 % of control
T/C [6]: 91 % of control
T/C [7]: 93 % of control

COC(=O)N1CC2C=CC1C(Cl)(C#N)C2 (stereo not drawn)
T/C [8]: 101 % of control
T/C [9]: 90 % of control
T/C [10]: 106 % of control

COc1cc(N=Nc2ccccc2)cc(/C=N\NC(=S)Nc2ccccc2)c1O
T/C (dose: 50.0 mg/kg/injection, schedule: Q01DX005 (ip), vehicle: saline with Tween-80): 91 % of control
T/C (dose: 100.0 mg/kg/injection, schedule: Q01DX005 (ip), vehicle: saline with Tween-80): 94 % of control

O=S1(=O)CS/C(=N/C(=S)N(Cc2ccccc2)Cc2ccccc2)N1c1ccccc1
T/C (dose: 50.0 mg/kg/injection, schedule: Q04DX003 (ip), vehicle: saline with Tween-80): 89 % of control
T/C [11]: 104 % of control
T/C [12]: 111 % of control

Cn1c(CC(O)c2nc3ccccc3n2C)nc2ccccc21 (stereo not drawn)
T/C [8]: 98 % of control
T/C [5]: 114 % of control
T/C [9]: 105 % of control
T/C [6]: 112 % of control
T/C [10]: 98 % of control
T/C [7]: 107 % of control

Cc1ccc(N=Cc2cccs2)cc1
T/C [8]: 115 % of control
T/C [9]: 115 % of control

COc1cc2c(c(OC)c1OC)-c1ccc(OC)c(=O)cc1[C@@H](N(C)C(=O)C(F)(F)F)CC2
T/C (dose: 1.25 mg/kg/injection, schedule: Q01DX009 (ip), vehicle: Klucel (hydroxypropylcellulose) (HPC)): 154 % of control and 163 % of control

O=C(CCCCCCCC(=O)NO)NO
T/C [13]: 95 % of control
T/C [14]: 100 % of control
T/C [15]: 105 % of control

C1CCCCCc2c(-c3noc4c3CCCCCCCCCC4)noc2CCCC1
T/C (dose: 60.0 mg/kg/injection, schedule: Q01DX005 (ip), vehicle: Klucel + Tween-80): 105 % of control
T/C (dose: 120.0 mg/kg/injection, schedule: Q01DX005 (ip), vehicle: Klucel + Tween-80): 97 % of control
T/C (dose: 240.0 mg/kg/injection, schedule: Q01DX005 (ip), vehicle: Klucel + Tween-80): 100 % of control

COc1ccc(CSC(=S)Nc2ccc(Cl)cc2Cl)cc1
T/C [5]: 106 % of control
T/C [6]: 105 % of control
T/C [7]: 99 % of control

CC(=O)Nc1ccc(Cl)cc1C(O)c1ccccc1 (stereo not drawn)
T/C (dose: 12.5 mg/kg/injection, schedule: Q01DX005 (ip), vehicle: Klucel (hydroxypropylcellulose) (HPC)): 89 % of control
T/C [1]: 91 % of control
T/C [2]: 98 % of control and 99 % of control

CC(C)(C)C(=O)CP(=O)(O)O (tested in a mixture with another compound)
T/C [5]: 105 % of control
T/C [6]: 101 % of control

CS(=O)(=O)CC(=N\O)/C(CS(C)(=O)=O)=N/O
T/C (dose: 60.0 mg/kg/injection, schedule: Q01DX005 (ip), vehicle: saline): 103 % of control
T/C (dose: 120.0 mg/kg/injection, schedule: Q01DX005 (ip), vehicle: saline): 94 % of control
T/C (dose: 240.0 mg/kg/injection, schedule: Q01DX005 (ip), vehicle: saline): 103 % of control

O=C1CC2(CCc3ccccc32)C(=O)N1CN1CCOCC1 (stereo not drawn)
T/C [13]: 100 % of control
T/C [14]: 104 % of control
T/C [15]: 100 % of control

O=C1c2ccccc2-c2nc3cncnc3nc21 (tested in a mixture with another compound)
T/C (dose: 50.0 mg/kg/injection, schedule: Q04DX003 (ip), vehicle: saline): 109 % of control
T/C [16]: 109 % of control
T/C [17]: 104 % of control

CNCC(CO)C(C)(C)C (stereo not drawn)
T/C [16]: 101 % of control
T/C [17]: 92 % of control

CC(=O)/C=C(\C)Nc1noc(-c2ccccc2)n1
T/C (dose: 4.38 mg/kg/injection, schedule: Q01DX005 (ip), vehicle: Klucel (hydroxypropylcellulose) (HPC)): 102 % of control
T/C [18]: 96 % of control
T/C [19]: 101 % of control

C/C(=C\C(=O)O)Cc1ccccc1 (tested in a mixture with another compound)
T/C (dose: 100.0 mg/kg/injection, schedule: Q04DX003 (ip), vehicle: other): 108 % of control
T/C (dose: 200.0 mg/kg/injection, schedule: Q04DX003 (ip), vehicle: other): 100 % of control
T/C (dose: 400.0 mg/kg/injection, schedule: Q04DX003 (ip), vehicle: other): 108 % of control

Nc1nc(=O)[nH]s1
T/C (dose: 6.25 mg/kg/injection, schedule: Q01DX009 (ip), vehicle: saline with Tween-80): 98 % of control
T/C (dose: 12.5 mg/kg/injection, schedule: Q01DX009 (ip), vehicle: saline with Tween-80): 87 % of control and 94 % of control
T/C (dose: 100.0 mg/kg/injection, schedule: Q01DX009 (ip), vehicle: saline with Tween-80): 95 % of control
T/C (dose: 200.0 mg/kg/injection, schedule: Q01DX009 (ip), vehicle: saline with Tween-80): 90 % of control

CC(=O)N1CCC23c4ccccc4N(C)C2CC(=O)CC13 (stereo not drawn)
T/C [18]: 97 % of control
T/C [19]: 98 % of control
T/C (dose: 35.0 mg/kg/injection, schedule: Q01DX005 (ip), vehicle: Klucel (hydroxypropylcellulose) (HPC)): 103 % of control

COC(=O)c1ccccc1N=NNc1ccccc1C(N)=O
T/C [11]: 90 % of control
T/C [12]: 97 % of control
T/C (dose: 400.0 mg/kg/injection, schedule: Q04DX003 (ip), vehicle: saline with Tween-80): 99 % of control

CSc1nc(N)c(C(=O)Nc2ccccc2)s1
T/C [8]: 103 % of control
T/C [9]: 101 % of control
T/C [10]: 100 % of control

CC(C)CC(=O)Nc1ccc(S(=O)(=O)Cl)cc1
T/C [6]: 100 % of control
T/C [7]: 90 % of control
T/C (dose: 400.0 mg/kg/injection, schedule: Q01DX009 (ip), vehicle: saline): 90 % of control

COc1ccc2cc3c[n+](C)ccc3cc2c1OC
T/C (dose: 12.5 mg/kg/injection, schedule: Q01DX009 (ip), vehicle: water): 118 % of control
T/C (dose: 25.0 mg/kg/injection, schedule: Q01DX009 (ip), vehicle: water): 112 % of control

CCCCCC1(c2ccccc2)CCCC(C#N)C1=O (stereo not drawn)
T/C [11]: 101 % of control
T/C [12]: 88 % of control

O=C(O)c1c[nH]c2cc(S(=O)(=O)O)ccc2c1=O
T/C [5]: 95 % of control
T/C [6]: 100 % of control
T/C [7]: 92 % of control
